Laboratory results from article PMC6127852 (Journal of Enzyme Inhibition and Medicinal Chemistry, 2018).
In brackets after ≈: the same amount, converted by molar mass.

Key:
E. coli ATCC 25925 = test: Broth microdilution MIC, E. coli ATCC 25925; assay type: cell-based; details: Escherichia coli, ATCC25925; Table S2
Method: (§1) The compounds were evaluated for their in vitro anti-bacterial activity against Gram-positive bacteria: S. aureus (ATCC 25923), MRSA, methicillin-sensitive S. aureus (MSSA), E. faecalis, vancomycin-resistant E. faecium (VREF), and Gram-negative bacteria: E. coli (ATCC 25925), P. aeruginosa (ATCC 27853), A. baumannii (ATCC 19606) and ESBL-producing K. pneumoniae (ATCC 27736). Standard broth microdilution method as recommended in guidelines of Clinical and Laboratory Standards Institute[61] ^, [65] ^, [66] was applied and the minimum inhibitory concentration (MIC) of compounds was tested. In short, testing was performed in U-bottomed 96-well sterile plastic microdilution trays (Falcon 3077, Becton Dickinson Labware, Franklin Lakes, NJ) in cation (Ca^2+ and Mg^2+) adjusted Mueller–Hinton broth medium (Becton Dickinson and Co., Cockeysville, MD). All testings were performed in triplicate.
(§2) The in vitro anti-bacterial activity of 5-amidinobenzimidazoles 7a–7e, 8a–8e, and 9a–9e was tested against Gram-positive bacteria including S. aureus (ATCC 25923), Enterococcus faecalis (ATCC 29212), and Gram-negative bacteria including E. coli (ATCC 25925), K. pneumoniae (ATCC 700803), P. aeruginosa (ATCC 27853), and Acinetobacter baumannii (ATCC 19606).

P. aeruginosa ATCC 27853 = test: Broth microdilution MIC, P. aeruginosa ATCC 27853; assay type: cell-based; details: Pseudomonas aeruginosa, ATCC27853; Table S2
Method: as §1, §2

A. baumannii ATCC 19606 = test: Broth microdilution MIC, A. baumannii ATCC 19606; assay type: cell-based; details: Acinetobacter baumannii, ATCC19606; Table S2
Method: as §1, §2

K. pneumonia ATCC 700803 = test: Broth microdilution MIC, K. pneumoniae ATCC 700803; assay type: cell-based; details: Klebsiella pneumoniae, ATCC700803; Table S2
Method: as §1, §2

[1] = test system: polyA-polyU (RNA, polymer) A/U; test: UV melting at 260 nm; details: PBS, I = 0.05 M, cations not specified, pH 7, r = 0.3 [compound]/[polynucleotide]
[2] = test system: polyA-polyU (RNA, polymer) A/U; test: UV-Vis titration, Scatchard; details: PBS; for log Ks: I = 0.05 M (Table 1 says I = 0.015 M), cations not specified, I = 0.015 M (Methods: 0.05 M)
[3] = test system: polyG-polyC (polyC-polyG) (RNA, polymer) G/C; test: UV-Vis titration, Scatchard; details: PBS; for log Ks: I = 0.05 M (Table 1 says I = 0.015 M), cations not specified, I = 0.015 M (Methods: 0.05 M)
[4] = test system: bloodstream form T. brucei (strain 221); test: Anti-trypanosomal screening, resazurin; assay type: cell-based; details: Trypanosoma brucei, mean of triplicate ± SEM
Method: Bloodstream form T. brucei (strain 221) were cultured in modified Iscove’s medium, as outlined[67] and trypanocidal assays were performed using 96-well microtitre plates. […] Resazurin was added after 48 h, the plates incubated for a further 16 h, and then read in a Spectramax plate reader (Molecular Devices Corporation, San Jose, CA). The data were analysed using GraphPad Prism (GraphPad, La Jolla, CA). Each drug concentration was tested in triplicate.

polyA-polyU [5] = test: Thermal melting (ΔTm) of polyA-polyU; assay type: binding; details: for ΔTm, polyA-polyU, r = 0.1: PBS, pH 7; for ΔTm, polyA-polyU, r = 0.3 / ΔTm, polyA-polyU, r = 0.5: first melting midpoint
Method: (§3) T m experiments were conducted with a Perkin Elmer Lambda 25 spectrophotometer in 1 cm quartz cuvettes. The absorbance of the DNA/RNA-compound complex was monitored at 260 nm as a function of temperature. The absorbance of the ligands was subtracted from every curve, and the absorbance scale was normalised. The ΔT m values were calculated by subtracting T m of the free nucleic acid from T m of the complex. Every reported ΔT m value was the average of at least two measurements. The error of ΔT m is ±0.5 °C. All data were graphed and analysed using Origin software version 9.0.
(§4) Denaturation experiments were carried out at different amounts of the compounds (r = 0.1, 0.3, 0.5, and 0.7 eq; r = [compound]/[polynucleotide]) with ctDNA and polyA-polyU.

S. aureus ATCC 25923 = test: Broth microdilution MIC, S. aureus ATCC 25923; assay type: cell-based; details: Staphylococcus aureus, ATCC25923; Table S2
Method: as §1, §2

polyA-polyU [6] = test: UV–Vis titration with polyA-polyU (Scatchard); assay type: binding; details: PBS, pH 7; for Hypochromic effect H/%, polyA-polyU: UV–Vis titration, calculated by Scatchard equation; for log Ks, polyA-polyU: binding constant, Scatchard
Method: (§5) Polynucleotides were purchased as follows: polyG–polyC, polyA–polyU (Sigma-Aldrich, St. Louis, MO), calf thymus ctDNA (Aldrich). Polynucleotides were dissolved in PBS buffer, I = 0.05 mol dm^−3, pH 7.0. The calf thymus ctDNA was additionally sonicated and filtered through a […] filter. The polynucleotide concentration was spectroscopically determined as the concentration of nucleobases.
(§6) All UV–Vis absorbance measurements were conducted on a Perkin Elmer Lambda 25 spectrophotometer (Perkin Elmer, Waltham, MA). A quartz cell with a 1 cm path length was used for all absorbance studies. Compound stock solutions were 1 mM. The DNA/RNA at increasing ratios was then titrated into the compound buffer solution (1.48 × 10^−5 mol dm^−3) and the corresponding absorption spectra were recorded under the same conditions. All data were graphed and analysed using Origin software version 9.0 (OriginLab Corporation, Northampton, MA). The stability constants (Ks) and [bound compound]/[polynucleotide phosphate] ratios (n) were calculated according to the Scatchard Equation[63] ^, [64]. Values for Ks and n given in Table 1 all have satisfying correlation coefficients (0.99).
(§7) The binding constants logKs and the density of the binding sites n were calculated using Scatchard plot analysis. In addition, the binding constants Ks for compounds 8b and 8e were calculated only for titration data taken at the r ≥ 0.1, because below that ratio changes in absorption maxima were too small for accurate calculation (ΔA ≤ 0.04) (Table 1). The binding constants Ks and ratios n obtained by processing UV–Vis titration data using the Scatchard equation are summarised in Table 1.

polyC-polyG = test: UV–Vis titration with polyC-polyG (Scatchard); assay type: binding; details: PBS, pH 7; for Hypochromic effect H/%, polyC-polyG: UV–Vis titration, calculated by Scatchard equation; for log Ks, polyC-polyG: binding constant, Scatchard
Method: as §5, §6, §7

E. faecalis ATCC 29212 = test: Broth microdilution MIC, E. faecalis ATCC 29212; assay type: cell-based; details: Enterococcus faecalis, ATCC29212; Table S2
Method: as §1, §2

S. aureus MSSA = test: Broth microdilution MIC, MSSA clinical strain; assay type: cell-based; details: Staphylococcus aureus
Method: as §1

S. aureus MRSA = test: Broth microdilution MIC, MRSA clinical strain; assay type: cell-based; details: Staphylococcus aureus, antibiotic-resistant clinical strain
Method: as §1

ctDNA = test: Thermal melting (ΔTm) of ctDNA; assay type: binding, calf; details: PBS, pH 7; for ΔTm, ctDNA, r = 0.3: r = [compound]/[polynucleotide] 0.3, error ±0.5 °C
Method: as §3, §4

calf thymus ctDNA = test: UV–Vis titration with ctDNA (Scatchard); assay type: binding; details: for Hypochromic effect H/%, ctDNA: UV–Vis titration, calculated by Scatchard equation; for Hypochromic effect H/%, ctDNA / log Ks, ctDNA: PBS, pH 7; for log Ks, ctDNA: binding constant, Scatchard
Method: as §5, §6, §7

E. faecium VRE = test: Broth microdilution MIC, VRE clinical strain; assay type: cell-based; details: Enterococcus faecium
Method: as §1

[7] = pH 7, changes too small for accurate calculation, compound 14.8 µM

SMILES	MIC (E. coli ATCC 25925) [µg/mL]	MIC (P. aeruginosa ATCC 27853) [µg/mL]	MIC (A. baumannii ATCC 19606) [µg/mL]	MIC (K. pneumonia ATCC 700803) [µg/mL]	log Ks ([2]; pH 7, per base)	IC50 [4] [µM]	IC90 [4] [µM]	ΔTm, polyA-polyU, r = 0.1 (polyA-polyU [5]) [°C]	ΔTm, polyA-polyU, r = 0.3 (polyA-polyU [5]) [°C]	ΔTm, polyA-polyU, r = 0.5 (polyA-polyU [5]) [°C]	MIC (S. aureus ATCC 25923) [µg/mL]	Hypochromic effect H/%, polyA-polyU (polyA-polyU [6]) [%]	log Ks, polyA-polyU (polyA-polyU [6])	log Ks, polyC-polyG (polyC-polyG)	MIC (E. faecalis ATCC 29212) [µg/mL]	MIC (S. aureus MSSA) [µg/mL]	MIC (S. aureus MRSA) [µg/mL]	ΔTm, ctDNA, r = 0.5 (ctDNA) [°C]	ΔTm, ctDNA, r = 0.7 (ctDNA) [°C]	MIC (E. faecium VRE) [µg/mL]	further results
O=C(O)c1cn(C2CC2)c2cc(N3CCNCC3)c(F)cc2c1=O [Ciprofloxacin, ciprofloxacin, reference compound]	0.004 (≈ 0.0121 µM)	0.5 (≈ 1.51 µM)	0.06 (≈ 0.181 µM)	0.06 (≈ 0.181 µM)	–	–	–	–	–	–	–	–	–	–	–	–	–	–	–	–	–
COc1ccc(-n2cc(COc3ccc(-c4nc5ccc(C6=NCCN6)cc5[nH]4)cc3)nn2)cc1	–	–	–	–	–	–	–	–	–	–	–	–	–	–	–	–	–	–	–	–	ΔTm ([1]; error ±0.5, biphasic, second midpoint 36.08, per base): 2.67 °C; log Ks ([2]; pH 7, n fixed, per base): 5.46; binding [3, 7]: weak
CC(C)NC(=N)c1ccc2nc(-c3ccc(OCc4cn(CSc5ccccc5)nn4)cc3)[nH]c2c1	–	–	–	–	5.96	–	–	–	–	–	–	–	–	–	–	–	–	–	–	–	ΔTm ([1]; error ±0.5 (shift within error), per base): 0.23 °C; log Ks ([3]; pH 7, per base): 7.20
CC(C)NC(=N)c1ccc2[nH]c(-c3ccc(OCc4cn(-c5ccccc5)nn4)cc3)nc2c1 [Compound 8a]	256 (≈ 567 µM)	> 256	> 256	> 256	5.87	7.1 ± 0.7	16.7 ± 1.2	0.32	0.64	1.11	128 (≈ 283 µM)	46.5	5.87	6.17	256 (≈ 567 µM)	128 (≈ 283 µM)	8 (≈ 17.7 µM)	3.94	4.25	128 (≈ 283 µM)	ΔTm ([1]; error ±0.5, per base): 0.64 °C; log Ks ([3]; pH 7, n fixed, per base): 6.17; Hypochromic effect H/%, polyC-polyG (polyC-polyG): 5.86%; ΔTm, ctDNA, r = 0.3 (ctDNA): 3.35 °C; Hypochromic effect H/%, ctDNA (calf thymus ctDNA): 41.0%; log Ks, ctDNA (calf thymus ctDNA): 6.17
CC(C)NC(=N)c1ccc2[nH]c(-c3ccc(OCc4cn(CSc5ccccc5)nn4)cc3)nc2c1.Cl.Cl [Compound 8e, N-isopropyl-2–(4-((1-(phenylthiomethyl)-1H-1,2,3-triazol-4-yl)methoxy)phenyl)-1H-benz[d]imidazole-5-carboximidamide dihydrochloride]	256	> 256	> 256	> 256	–	13.5 ± 0.8	22.5 ± 0.3	0.52	0.23	0.26	64	47.2	5.96	7.20	256	64	8	1.72	1.71	64	Hypochromic effect H/%, polyC-polyG (polyC-polyG): 5.96%; melting point: 152 to 154 °C; ΔTm, ctDNA, r = 0.3 (ctDNA): 2.22 °C; Hypochromic effect H/%, ctDNA (calf thymus ctDNA): 44.2%; log Ks, ctDNA (range r ≥ 0.1) (calf thymus ctDNA; footnote f: mixed binding mode, calculated in range r ≥ 0.1): 6.39
CC1(C)S[C@@H]2[C@H](NC(=O)[C@H](N)c3ccccc3)C(=O)N2[C@H]1C(=O)O [Ampicillin, ampicillin, reference compound]	–	–	–	–	–	–	–	–	–	–	1 (≈ 2.86 µM)	–	–	–	2 (≈ 5.72 µM)	1 (≈ 2.86 µM)	4 (≈ 11.4 µM)	–	–	1 (≈ 2.86 µM)	–
COc1ccc(-n2cc(COc3ccc(-c4nc5ccc(C(=N)N)cc5[nH]4)cc3)nn2)cc1	–	–	–	–	–	–	–	–	–	–	–	–	–	–	–	–	–	–	–	–	binding [2, 7]: weak; log Ks ([3]; pH 7, per base): 6.27
CC(C)NC(=N)c1ccc2[nH]c(-c3ccc(OCc4cn(Cc5ccccc5)nn4)cc3)nc2c1 [Compound 8d]	> 256	> 256	> 256	> 256	6.13	12.9 ± 0.2	21.6 ± 0.4	0.91	0.51	0.72	64 (≈ 137 µM)	53.8	6.13	5.54	128 (≈ 275 µM)	64 (≈ 137 µM)	32 (≈ 68.7 µM)	3.32	3.63	64 (≈ 137 µM)	log Ks ([3]; pH 7, n fixed, per base): 5.54; ΔTm, ctDNA, r = 0.3 (ctDNA): 1.76 °C; Hypochromic effect H/%, ctDNA (calf thymus ctDNA): 41.2%; log Ks, ctDNA (calf thymus ctDNA): 5.93
CNC(C)C1CCC(N)C(OC2C(N)CC(N)C(OC3OCC(C)(O)C(NC)C3O)C2O)O1 (stereo not drawn) [Gentamicin, gentamicin, reference compound]	–	–	–	–	–	–	–	–	–	–	0.125 (≈ 0.262 µM)	–	–	–	8 (≈ 16.8 µM)	0.125 (≈ 0.262 µM)	0.25 (≈ 0.523 µM)	–	–	0.25 (≈ 0.523 µM)	–
